Earlier results, collected in patent publication US20220117942A1, “COMBINATION THERAPY FOR THE TREATMENT OF PROSTATE CANCER” (Zenith Epigenetics Ltd., priority 2018, published 2022).

Test system: 2nd line mCRPC patients
Conditions: enzalutamide alone, comparison value

SMILES: CNC(=O)c1ccc(N2C(=S)N(c3ccc(C#N)c(C(F)(F)F)c3)C(=O)C2(C)C)cc1F [enzalutamide]
- expected rPFS: 24-28 weeks
